Values quoted from earlier work, collected in PMC2967214 (Journal of the American Chemical Society, 2010).

What was measured:
[1] = cited from earlier work
[2] = 25°C, 20 MHz; cited from earlier work

Row | Compound | thermodynamic and kinetic stability of Gd3+ complex [1] | r1 relaxivity [2] [mM⁻¹ s⁻¹]
1 | O=C(O)CN1CCN(CC(=O)O)CCN(CC(=O)O)CCN(CC(=O)O)CC1 [DOTA] | high thermodynamic and kinetic stability | –
2 | Gadomer 17 | – | 16.5
